Reference: ChEMBL document CHEMBL3352370, “Substrate derived peptidic α-ketoamides as inhibitors of the malarial protease PfSUB1” (Bioorg Med Chem Lett, 2014)
Numbered stars: 1 amine (or outer) side, 2 acyl side, 3 side chain; on linkers, the order of the positions; unused ones are H or OH. Square brackets hold non-standard residues; d marks the D form. Peptide text beside a SMILES is read from it. ξ: configuration not given here. ξ3Amino2oxobutanoyl = CC(N[*:1])C(=O)C(=O)[*:2]; GABA = NCCCC(=O)O; βAla = NCCC(=O)O

target: T1, Subtilisin-like protease 1 (Plasmodium falciparum, UniProt O61142); test: Inhibition of Plasmodium falciparum SUB1
T1 sequence (O61142 whole entry): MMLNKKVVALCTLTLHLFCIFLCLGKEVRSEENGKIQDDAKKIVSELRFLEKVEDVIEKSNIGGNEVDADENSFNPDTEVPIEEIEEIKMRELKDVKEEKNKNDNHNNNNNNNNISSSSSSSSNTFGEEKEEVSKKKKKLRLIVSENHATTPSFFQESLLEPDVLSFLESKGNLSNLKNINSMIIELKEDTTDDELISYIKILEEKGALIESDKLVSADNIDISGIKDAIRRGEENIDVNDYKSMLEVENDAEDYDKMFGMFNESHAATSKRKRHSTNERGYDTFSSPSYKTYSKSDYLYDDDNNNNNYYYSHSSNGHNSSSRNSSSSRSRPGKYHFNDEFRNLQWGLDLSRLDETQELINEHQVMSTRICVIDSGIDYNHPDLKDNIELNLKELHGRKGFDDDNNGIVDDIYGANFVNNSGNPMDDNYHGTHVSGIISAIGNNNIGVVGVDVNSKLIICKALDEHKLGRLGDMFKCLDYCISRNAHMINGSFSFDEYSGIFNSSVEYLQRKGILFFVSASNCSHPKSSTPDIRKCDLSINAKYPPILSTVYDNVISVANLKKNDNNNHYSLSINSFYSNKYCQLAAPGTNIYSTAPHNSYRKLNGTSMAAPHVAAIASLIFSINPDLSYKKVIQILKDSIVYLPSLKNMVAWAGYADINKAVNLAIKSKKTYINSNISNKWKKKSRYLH

| Compound | Ki | IC50 |
| --- | --- | --- |
| O=C(CCCCCNC(=O)CCCC[C@@H]1SC[C@@H]2NC(=O)N[C@@H]21)NCCCCCC(=O)Nc1ccc2c(Cl)c(OCCc3ccccc3)oc(=O)c2c1 | – | 18 µM |
| COc1ccc(Nc2cc(C)c3cc(NC(=O)c4cc5ccccc5[nH]4)ccc3n2)cc1 | 6 µM | – |
| CC[C@H](C)[C@H](NC(C)=O)C(=O)N[C@H](C(=O)NC1(C(=O)NC(C)C(=O)C(=O)NCCC(=O)O)CC1)[C@@H](C)O (stereo partly drawn) | – | > 50 µM |
| CC[C@H](C)[C@H](NC(C)=O)C(=O)N[C@@H](C)C(=O)N[C@@H](C)C(=O)NC(C)C(=O)C(=O)NCCC(=O)O (stereo partly drawn) | – | 30 µM |
| CC(=O)N[C@@H](C)C(=O)N[C@H](C(=O)NCC(=O)NC(C)C(=O)C(=O)NCCC(=O)O)[C@@H](C)O (stereo partly drawn) | – | > 50 µM |
| CC[C@H](C)[C@H](NC(C)=O)C(=O)N[C@H](C(=O)N[C@@H](C)C(=O)NC(C(=O)C(=O)NCCC(=O)O)C(C)C)[C@@H](C)O (stereo partly drawn) | – | 20 µM |
| CC[C@H](C)[C@H](NC(C)=O)C(=O)N[C@H](C(=O)NCC(=O)NC(C(=O)C(=O)NCCC(=O)O)C(C)C)[C@@H](C)O (stereo partly drawn) | – | 4.5 µM |
| CC[C@@H](C)[C@H](NC(=O)[C@H](CCCCN)NC(C)=O)C(=O)N[C@H](C(=O)N[C@@H](C)C(=O)NC(CCC(N)=O)C(=O)C(=O)NCCC(=O)O)[C@@H](C)O (stereo partly drawn) | – | 7 µM |
| CC[C@H](C)[C@H](NC(=O)[C@H](CCCCN)NC(C)=O)C(=O)N[C@H](C(=O)N[C@@H](C)C(=O)NC(C)C(=O)C(=O)NCC(=O)O)[C@@H](C)O (stereo partly drawn) (Ac-KITA[ξ3Amino2oxobutanoyl]G-OH) | – | 10 µM |
| CC[C@H](C)[C@H](NC(=O)[C@H](CCCCN)NC(C)=O)C(=O)N[C@H](C(=O)N[C@@H](C)C(=O)NC(C)C(=O)C(=O)NCCCC(=O)O)[C@@H](C)O (stereo partly drawn) (Ac-KITA[ξ3Amino2oxobutanoyl][GABA]-OH) | – | 3.1 µM |
| CC[C@H](C)[C@H](NC(=O)[C@H](CCCCN)NC(C)=O)C(=O)N[C@H](C(=O)N[C@@H](C)C(=O)NC(C)C(=O)C(=O)NCCC(N)=O)[C@@H](C)O (stereo partly drawn) (Ac-KITA[ξ3Amino2oxobutanoyl][βAla]-NH2) | – | 38 µM |
| CC[C@H](C)[C@H](NC(=O)[C@H](CCCCN)NC(C)=O)C(=O)N[C@H](C(=O)N[C@@H](C)C(=O)NC(C)C(=O)C(=O)NCCC(=O)O)[C@@H](C)O (stereo partly drawn) (Ac-KITA[ξ3Amino2oxobutanoyl][βAla]-OH) | – | 1 µM |

The remaining lines, values ahead:

| Ki | IC50 | Compound |
| --- | --- | --- |
| 8 µM | – | O=C(Nc1ccc(-c2nc3cc(NC(=O)c4ccccc4)ccc3[nH]2)cc1)c1ccccc1 |
| – | 0.3 µM | Oc1ccc(C2Oc3c(c(O)cc4c3C3c5c(O)cc(O)c(O)c5OC(c5ccc(O)c(O)c5)(O4)C3O)CC2O)cc1O (stereo not drawn) |
| – | 2.5 µM | CC[C@H](C)[C@H](NC(C)=O)C(=O)N[C@H](C(=O)N[C@@H](C)C(=O)NC(C)C(=O)C(=O)NCCC(=O)O)[C@@H](C)O (stereo partly drawn) |
| – | > 50 µM | CC[C@H](C)[C@H](NC(C)=O)C(=O)N[C@H](C(=O)NC(C)(C)C(=O)NC(C)C(=O)C(=O)NCCC(=O)O)[C@@H](C)O (stereo partly drawn) |
| – | 0.9 µM | CC[C@H](C)[C@H](NC(C)=O)C(=O)N[C@H](C(=O)NCC(=O)NC(C)C(=O)C(=O)NCCC(=O)O)[C@@H](C)O (stereo partly drawn) |
| – | 100 µM | CC[C@H](C)[C@H](NC(C)=O)C(=O)N[C@H](C(=O)N[C@@H](C)C(=O)NC(Cc1ccccc1)C(=O)C(=O)NCCC(=O)O)[C@@H](C)O (stereo partly drawn) |
| – | > 50 µM | CC[C@H](C)[C@H](NC(C)=O)C(=O)N[C@H](C(=O)N[C@@H](C)C(=O)NC(C(=O)C(=O)NCCC(=O)O)c1ccccc1)[C@@H](C)O (stereo partly drawn) |
| – | 5 µM | CC[C@H](C)[C@H](NC(C)=O)C(=O)N[C@H](C(=O)N[C@@H](C)C(=O)NC(CCC(=O)O)C(=O)C(=O)NCCC(=O)O)[C@@H](C)O (stereo partly drawn) |
| – | > 50 µM | CC[C@H](C)[C@H](NC(C)=O)C(=O)N[C@H](C(=O)N[C@@H](C)C(=O)NC(CCC(=O)N(C)C)C(=O)C(=O)NCCC(=O)O)[C@@H](C)O (stereo partly drawn) |
| – | > 50 µM | CC[C@H](C)[C@H](NC(C)=O)C(=O)N[C@H](C(=O)N[C@@H](C)C(=O)NC(C[C@@H]1CCNC1=O)C(=O)C(=O)NCCC(=O)O)[C@@H](C)O (stereo partly drawn) |
| – | 1.2 µM | CCC(NC(=O)CNC(=O)[C@@H](NC(=O)[C@@H](NC(C)=O)[C@@H](C)CC)[C@@H](C)O)C(=O)C(=O)NCCC(=O)O (stereo partly drawn) |
